Reference: patent US20110251379A1, “COMPOUNDS USEFUL FOR TREATING NEURODEGENERATIVE DISORDERS” (Satori Pharmaceuticals, Inc., priority 2010, published 2011)

System: amyloid-beta (1-42) peptide
Assay: ELISA assay of amyloid-beta (1-42) in conditioned media of 2B7 cells
Type: cell-based
Settings: Aβ-42, 100 umol/L; read-out: % Inhibition (range)
In short: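 2B7 cells were treated with compounds for 5 hours at 37° C in media with 1% DMSO. Conditioned media, diluted 1:2 in blocking buffer, went into a sandwich ELISA with 6E10 capture and an HRP-labelled detection antibody, read by TMB at 450 nm. Values came from an Aβ peptide standard curve.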

Compound	inhibition at 100 µM [%]
C[C@@H]1C[C@H]([C@@H]2OC(=O)OC2(C)C)OC2C1[C@@]1(C)CC[C@@]34C[C@@]35CC[C@H](O)C(C)(C)[C@@H]5CC[C@H]4[C@]1(C)[C@H]2O (stereo partly shown)	25 to 75

Same assay, conditions: Aβ-42, 2B7 cells, 5 hours; read-out: IC50 range

Compound	IC50 [µM]
CCC(=O)OC(C1CC(C)C2C(O1)C(O)C1(C)C3CCC4C(C)(C)C(OC5OCC(O)C(O)C5O)CCC45CC35CCC21C)C(C)(C)O (stereo not shown)	≤ 1
CNCC1CC(C)C2C(O1)C(O)C1(C)C3CCC4C(C)(C)C(OC5OCC(O)C(O)C5O)CCC45CC35CCC21C (stereo not shown)	> 10
CC(=O)OC(C1CC(C)C2C(O1)C(O)C1(C)C3CCC4C(C)(CCC(O)C4(C)C)C3=CCC21C)C(C)(C)O (stereo not shown)	≤ 1
CC(=O)OC(C1CC(C)C2C(O1)C(OC(N)=O)C1(C)C3CCC4C(C)(C)C(OC(N)=O)CCC45CC35CCC21C)C(C)(C)O (stereo not shown)	> 10
CC(=O)OC(C1CC(C)C2C(O1)C(OC(=O)C(F)(F)F)C1(C)C3CCC4C(C)(C)C(OC(=O)C(F)(F)F)CCC45CC35CCC21C)C(C)(C)O (stereo not shown)	≤ 1
CC(=O)OC(C1CC(C)C2C(O1)C(OC(=O)C(F)(F)F)C1(C)C3CCC4C(C)(C)C(O)CCC45CC35CCC21C)C(C)(C)O (stereo not shown)	≤ 1
CC(=O)OC(C1CC(C)C2C(O1)C(OC(N)=O)C1(C)C3CCC4C(C)(C)C(O)CCC45CC35CCC21C)C(C)(C)O (stereo not shown)	> 10
CC(=O)OC(C1CC(C)C2C(O1)C(O)C1(C)C3CCC4C(C)(C)C(OC(=O)C5CCN5)CCC45CC35CCC21C)C(C)(C)O (stereo not shown)	≤ 1
CCN1CCOC(OC2CCC34CC35CCC3(C)C6C(C)CC(C(OC(C)=O)C(C)(C)O)OC6C(OC(C)=O)C3(C)C5CCC4C2(C)C)C1 (stereo not shown)	> 10
CC1CC(CNCc2ccccc2)OC2C1C1(C)CCC34CC35CCC(O)C(C)(C)C5CCC4C1(C)C2O (stereo not shown)	> 10
CC1CC(CNC(C)(C)C)OC2C1C1(C)CCC34CC35CCC(O)C(C)(C)C5CCC4C1(C)C2O (stereo not shown)	> 10
CC1CC(CN(C)C)OC2C1C1(C)CCC34CC35CCC(O)C(C)(C)C5CCC4C1(C)C2O (stereo not shown)	> 10
CC1CC(CNCC(F)(F)F)OC2C1C1(C)CCC34CC35CCC(O)C(C)(C)C5CCC4C1(C)C2O (stereo not shown)	> 10
C=C(C)C(OC(C)=O)C1CC(C)C2C(O1)C(O)C1(C)C3CCC4C(C)(C)C(OC5CN(CC(=O)N(C)C)CCO5)CCC45CC35CCC21C (stereo not shown)	1 to 10
CC(=O)N(CC1CC(C)C2C(O1)C(O)C1(C)C3CCC4C(C)(C)C(O)CCC45CC35CCC21C)C(C)(C)C (stereo not shown)	< 10
CC(=O)N(C)CC1CC(C)C2C(O1)C(O)C1(C)C3CCC4C(C)(C)C(O)CCC45CC35CCC21C (stereo not shown)	> 10
CC(=O)N(CC1CC(C)C2C(O1)C(O)C1(C)C3CCC4C(C)(C)C(O)CCC45CC35CCC21C)CC(F)(F)F (stereo not shown)	> 10
COC(=O)C1CC(C)C2C(O1)C(O)C1(C)C3CCC4C(C)(C)C(O)CCC45CC35CCC21C (stereo not shown)	> 10
CC1CC(C(=O)NC2CCC2)OC2C1C1(C)CCC34CC35CCC(O)C(C)(C)C5CCC4C1(C)C2O (stereo not shown)	> 10
CC1CC(C(=O)NCc2ccccc2)OC2C1C1(C)CCC34CC35CCC(O)C(C)(C)C5CCC4C1(C)C2O (stereo not shown)	> 10
CC1CC(CN)OC2C1C1(C)CCC34CC35CCC(O)C(C)(C)C5CCC4C1(C)C2O (stereo not shown)	> 10
CC(=O)NCC1CC(C)C2C(O1)C(O)C1(C)C3CCC4C(C)(C)C(O)CCC45CC35CCC21C (stereo not shown)	> 10
CC1CC(CNC(C)(C)C)OC2C1C1(C)CCC34CC35CCC(OS(C)(=O)=O)C(C)(C)C5CCC4C1(C)C2O (stereo not shown)	> 10

Compound	IC50 [µM]
CCC(=O)N(CC1CC(C)C2C(O1)C(O)C1(C)C3CCC4C(C)(C)C(O)CCC45CC35CCC21C)C(C)(C)C (stereo not shown)	> 10
CC1CC(C(=O)N2CCC2)OC2C1C1(C)CCC34CC35CCC(O)C(C)(C)C5CCC4C1(C)C2O (stereo not shown)	> 10
CC1CC(C(=O)N2CCOCC2)OC2C1C1(C)CCC34CC35CCC(O)C(C)(C)C5CCC4C1(C)C2O (stereo not shown)	> 10
CC1CC(CNS(C)(=O)=O)OC2C1C1(C)CCC34CC35CCC(O)C(C)(C)C5CCC4C1(C)C2O (stereo not shown)	> 10
CC(=O)N(CC1CC(C)C2C(O1)C(O)C1(C)C3CCC4C(C)(C)C(O)CCC45CC35CCC21C)C1COC1 (stereo not shown)	> 10
CC1CC(CN(CC(C)(C)O)S(C)(=O)=O)OC2C1C1(C)CCC34CC35CCC(O)C(C)(C)C5CCC4C1(C)C2O (stereo not shown)	> 10
CC(=O)N(Cc1ccccc1)C(C(=O)NCc1ccccc1)C1CC(C)C2C(O1)C(O)C1(C)C3CCC4C(C)(C)C(O)CCC45CC35CCC21C (stereo not shown)	> 10
CC1CC(c2nnco2)OC2C1C1(C)CCC34CC35CCC(O)C(C)(C)C5CCC4C1(C)C2O (stereo not shown)	> 10
CC1CC(CN2CCCCC2=O)OC2C1C1(C)CCC34CC35CCC(O)C(C)(C)C5CCC4C1(C)C2O (stereo not shown)	> 10
CC(=O)N(C)C(C(=O)NCc1ccccc1)C1CC(C)C2C(O1)C(O)C1(C)C3CCC4C(C)(C)C(O)CCC45CC35CCC21C (stereo not shown)	> 10
CC(=O)N(CC1CC(C)C2C(O1)C(O)C1(C)C3CCC4C(C)(C)C(O)CCC45CC35CCC21C)C1CCC1 (stereo not shown)	> 10
CC1CC(CN2CCCC2=O)OC2C1C1(C)CCC34CC35CCC(O)C(C)(C)C5CCC4C1(C)C2O (stereo not shown)	> 10
CC1CC(CN2C(=O)OCC2(C)C)OC2C1C1(C)CCC34CC35CCC(O)C(C)(C)C5CCC4C1(C)C2O (stereo not shown)	> 10
CC(=O)N(CC1CC(C)C2C(O1)C(O)C1(C)C3CCC4C(C)(C)C(OC(=O)c5cccnc5)CCC45CC35CCC21C)C1CCC1 (stereo not shown)	> 10
CC(=O)N(CC1CC(C)C2C(O1)C(O)C1(C)C3CCC4C(C)(C)C(OC(=O)c5cccnc5)CCC45CC35CCC21C)C(C)(C)C (stereo not shown)	> 10
CC1CC(CN(C)C(=O)C(C)(C)C)OC2C1C1(C)CCC34CC35CCC(O)C(C)(C)C5CCC4C1(C)C2O (stereo not shown)	> 10
CC1CC(CN(C)C(=O)C(C)(C)C)OC2C1C1(C)CCC34CC35CCC(OC(=O)c3cccnc3)C(C)(C)C5CCC4C1(C)C2O (stereo not shown)	> 10
CC(=O)N(Cc1ccccc1)CC1CC(C)C2C(O1)C(O)C1(C)C3CCC4C(C)(C)C(OC(=O)c5cccnc5)CCC45CC35CCC21C (stereo not shown)	1 to 10
CC(=O)N(CC1CC(C)C2C(O1)C(O)C1(C)C3CCC4C(C)(C)C(O)CCC45CC35CCC21C)CC(C)(C)C (stereo not shown)	1 to 10
COC(=O)N(CC1CC(C)C2C(O1)C(O)C1(C)C3CCC4C(C)(C)C(O)CCC45CC35CCC21C)C(C)(C)C (stereo not shown)	> 10
CC(C)NC(=O)N(Cc1ccccc1)CC1CC(C)C2C(O1)C(O)C1(C)C3CCC4C(C)(C)C(O)CCC45CC35CCC21C (stereo not shown)	> 10
CC(=O)N(Cc1ccccc1F)CC1CC(C)C2C(O1)C(O)C1(C)C3CCC4C(C)(C)C(O)CCC45CC35CCC21C (stereo not shown)	1 to 10
CC(=O)N(Cc1cccc(F)c1)CC1CC(C)C2C(O1)C(O)C1(C)C3CCC4C(C)(C)C(O)CCC45CC35CCC21C (stereo not shown)	≤ 1

Compound	IC50 [µM]
CC(=O)N(Cc1ccc(F)cc1)CC1CC(C)C2C(O1)C(O)C1(C)C3CCC4C(C)(C)C(O)CCC45CC35CCC21C (stereo not shown)	1 to 10
CC(=O)N(Cc1cccnc1)CC1CC(C)C2C(O1)C(O)C1(C)C3CCC4C(C)(C)C(O)CCC45CC35CCC21C (stereo not shown)	> 10
CC(=O)N(Cc1ccncc1)CC1CC(C)C2C(O1)C(O)C1(C)C3CCC4C(C)(C)C(O)CCC45CC35CCC21C (stereo not shown)	> 10
CC(=O)N(Cc1cc(F)cc(F)c1)CC1CC(C)C2C(O1)C(O)C1(C)C3CCC4C(C)(C)C(OC(=O)c5cccnc5)CCC45CC35CCC21C (stereo not shown)	1 to 10
CC(=O)N(Cc1cc(F)c(F)c(F)c1)CC1CC(C)C2C(O1)C(O)C1(C)C3CCC4C(C)(C)C(O)CCC45CC35CCC21C (stereo not shown)	1 to 10
CC(=O)N(Cc1cc(F)cc(F)c1)CC1CC(C)C2C(O1)C(O)C1(C)C3CCC4C(C)(C)C(OC(=O)c5ccccn5)CCC45CC35CCC21C (stereo not shown)	1 to 10
CC1CC(CN(Cc2ccccc2)C(=O)N(C)C)OC2C1C1(C)CCC34CC35CCC(O)C(C)(C)C5CCC4C1(C)C2O (stereo not shown)	> 10
CC(=O)N(CC1CC(C)C2C(O1)C(O)C1(C)C3CCC4C(C)(C)C(O)CCC45CC35CCC21C)C(C)c1ccc(F)cc1 (stereo not shown)	1 to 10
CC(=O)N(Cc1cc(F)cc(F)c1)CC1CC(C)C2C(O1)C(O)C1(C)C3CCC4C(C)(C)C(OC(=O)c5ccncc5)CCC45CC35CCC21C (stereo not shown)	> 10
CC(=O)N(Cc1cc(F)cc(F)c1)CC1CC(C)C2C(O1)C(O)C1(C)C3CCC4C(C)(C)C(OC(=O)C5CN(C(=O)OC(C)(C)C)C5)CCC45CC35CCC21C (stereo not shown)	> 10
CC1CC(C(OC(=O)C(C)(C)C)C(C)(C)O)OC2C1C1(C)CCC34CC35CCC(O)C(C)(C)C5CCC4C1(C)C2O (stereo not shown)	> 1
CC1CC(C2OC(=O)OC2(C)C)OC2C1C1(C)CCC34CC35CCC(O)C(C)(C)C5CCC4C1(C)C2O (stereo not shown)	> 10
CC(=O)N(Cc1cc(F)cc(F)c1)CC1CC(C)C2C(O1)C(O)C1(C)C3CCC4C(C)(C)C(OC(=O)CN5CCOCC5)CCC45CC35CCC21C (stereo not shown)	> 10
CC(=O)N(Cc1cc(F)cc(F)c1)CC1CC(C)C2C(O1)C(O)C1(C)C3CCC4C(C)(C)C(OC(=O)Cc5cccnc5)CCC45CC35CCC21C (stereo not shown)	> 10
CC(=O)OC(C1CC(C)C2C(O1)C(O)C1(C)C3CCC4C(C)(C)C(OC(=O)C5(C)COC5)CCC45CC35CCC21C)C(C)(C)O (stereo not shown)	≤ 1
CC1CC(C(O)C(C)(C)O)OC2C1C1(C)CCC34CC35CCC(OC3CN(C(=O)c6ccc(F)cc6)CCO3)C(C)(C)C5CCC4C1(C)C2O (stereo not shown)	1 to 10
CC1CC(C(O)C(C)(C)O)OC2C1C1(C)CCC34CC35CCC(OC3CN(C(=O)c6ccccn6)CCO3)C(C)(C)C5CCC4C1(C)C2O (stereo not shown)	> 10
CC1CC(C(O)C(C)(C)O)OC2C1C1(C)CCC34CC35CCC(OC3CN(C(=O)CN(C)C)CCO3)C(C)(C)C5CCC4C1(C)C2O (stereo not shown)	1 to 10
CC1CC(C(O)C(C)(C)O)OC2C1C1(C)CCC34CC35CCC(OC3CN(C(=O)CN6CCCC6)CCO3)C(C)(C)C5CCC4C1(C)C2O (stereo not shown)	1 to 10
CC1CC(C(O)C(C)(C)O)OC2C1C1(C)CCC34CC35CCC(OC3CN(C(=O)C6CCN(C)CC6)CCO3)C(C)(C)C5CCC4C1(C)C2O (stereo not shown)	1 to 10
CC1CC(C(O)C(C)(C)O)OC2C1C1(C)CCC34CC35CCC(OC3CN(C(=O)CC6CCCCC6)CCO3)C(C)(C)C5CCC4C1(C)C2O (stereo not shown)	≤ 1
CC1CC(C(O)C(C)(C)O)OC2C1C1(C)CCC34CC35CCC(OC3CN(C(=O)C6CCC6)CCO3)C(C)(C)C5CCC4C1(C)C2O (stereo not shown)	< 10
CC1CC(CCC(=O)O)OC2C1C1(C)CCC34CC35CCC(OC3CN(C(=O)CC6CC6)CCO3)C(C)(C)C5CCC4C1(C)C2O (stereo not shown)	1 to 10
